These results are taken from ChEMBL document CHEMBL1129232, “Synthesis and anti-HIV activity of dihydroisoxazole 6-chloropurine and adenine” (Bioorg Med Chem Lett, 1996).

As a reminder, the pIC50 is the negative decadic logarithm of the IC50, by convention in mol/L. Lower therefore signals a high IC50. For orientation: pEC50 means the negative decadic logarithm of the EC50, by convention in mol/L.

pEC50, pIC50: −log10 of the molar value. A value given as a limit tells only on which side of the number the result lay.

One assay deals with CCRF-CEM. Nature of the assay: Compound was evaluated for cytotoxicity against CEM cells. The assay is classed as functional, cell-based, Homo sapiens.
Assay [1] in a line: Median effective dose required for anti HIV-1 activity in PBM cells(Human lymphocytes). The format is functional, cell-based. Particulars: PBMC.
The test system of another assay is Vero. Nature of the assay: Compound was evaluated for cytotoxicity against Vero cells. Particulars: Chlorocebus sabaeus. The format is functional, cell-based.
Assay [2] can be described thus: Compound was evaluated for cytotoxicity against human lymphocytes (PBM cells). Particulars: PBMC. The assay is classed as functional, cell-based.

On to `OCC1=NOC(n2cnc3c(Cl)ncnc32)C1` (stereo unspecified), for which the pIC50 was 4.45 in the assay with CCRF-CEM (Homo sapiens, CCRF-CEM); less than 4.00 in the assay on Vero; 4.13 in assay [2]. This compound showed a pEC50 in assay [1] of 4.46.
Regarding `Nc1ncnc2c1ncn2C1CC(CO)=NO1` (stereo unspecified), the pIC50 in the assay with CCRF-CEM (Homo sapiens, CCRF-CEM) is less than 4.00; in the assay with Vero, less than 4.00; in assay [2] it was less than 4.00. Also, in assay [1], the pEC50 is 4.26.
With `Cc1cn([C@H]2C[C@H](N=[N+]=[N-])[C@@H](CO)O2)c(=O)[nH]c1=O` [ZIDOVUDINE], the figures for the pIC50 (in the assay with CCRF-CEM (ccrf-cem); in assay [2]) were 4.85 and less than 4.00, respectively. In assay [1], the pEC50 is 8.40.
